Columns and labels:
BAK-BAX oligomerization = assay: Heterodimer complexes in AMO-1 xenograft tumor lysates after treatment, BAK-BAX; assay type: in vivo, mice; details: 16 hours after treatment, 100 mg/kg orally (FIG. 7A)
Method: The immunoassays described herein were built on the Luminex xMAP multiplex technology platform using magnetic bead capture. Washes were performed with a 96-well magnetic plate washer (ELx405), BioTek). During incubation, the plates were placed on an orbital titer plate shaker (VWR International). Liquid handling was performed manually with calibrated, adjustable, precision multichannel pipettes (Rainin 8-Channel). All assays were performed in 96-well plates (BioPlex, BioRad) at 25° C.±3° C. by adding 10 μL of blocking solution (Myriad RBM) and 30 μL of calibrator, control, or unknown sample. Antibody-coupled beads were sonicated for 5 seconds and then vortexed at medium speed for 10 to 20 seconds to disperse the beads, and 10 μL beads (250 beads/analyte/μL) were added to each well per analyte. Plates were protected from light (Black Microplate Lid, VWR) and incubated for 1 hour at 25° C.±3° C. with shaking. […] After a final wash, 100 μL of assay buffer was added to each well and plates were read on a Luminex 200 reader.
Heterodimer complexes were measured in AMO-1 and MV11 xenograft tumor lysates using the immunoassay described in Examples 3 and 4. […] The level of cleaved caspase-3 was also measured. […] Heterodimer composition was also measured in blood or bone marrow samples of 11 patients with CLL.

AMO-1 xenograft tumors = assay: Response of multiple myeloma model AMO-1 to BH3 mimetic treatment; assay type: in vivo, mice; details: 100 mg/kg orally, 16 hours (FIG. 7A)
MV411 xenograft tumors = assay: Response of AML model MV411 to BH3 mimetic treatment; assay type: in vivo, mice; details: MV411 xenograft tumor lysates, 24 hours after treatment; NSC798846 25 mg/kg intravenously, NSC766270 100 mg/kg orally (FIG. 7B)
[1] = test system: MV4-11 human AML xenograft model; details: in vivo; compared with AMO1 xenografts; Kotschy et al.; cited from earlier work
cleaved caspase-3 = assay: Cleaved caspase-3 level in treated cancer cell lines; assay type: cell-based, human; parameters: dose or concentration left out as unconfirmed
Method: (§1) Further studies were conducted to evaluate the effect of BH3 mimetics on Bcl-2 family heterodimer levels and induction of apoptosis.
(§2) Similar studies were performed in AMO-1 plasmacytoma cells and Mv4-11 acute myeloid leukemia cells. […] The level of cleaved caspase-3 was also determined.

BAX-BAK heterodimer = assay: Heterodimer immunoassay, BAX-BAK in lysates of treated cancer cell lines; assay type: cell-based, human; parameters: BAX-BAK heterodimers: dose or concentration left out as unconfirmed; details: for BAX-BAK levels: HCT116 and MOLT-4 cancer cell lines (FIG. 4C)
Method: (§3) The immunoassays described herein were built on the Luminex xMAP multiplex technology platform using magnetic bead capture. Washes were performed with a 96-well magnetic plate washer (ELx405), BioTek). During incubation, the plates were placed on an orbital titer plate shaker (VWR International). Liquid handling was performed manually with calibrated, adjustable, precision multichannel pipettes (Rainin 8-Channel). All assays were performed in 96-well plates (BioPlex, BioRad) at 25° C.±3° C. by adding 10 μL of blocking solution (Myriad RBM) and 30 μL of calibrator, control, or unknown sample. Antibody-coupled beads were sonicated for 5 seconds and then vortexed at medium speed for 10 to 20 seconds to disperse the beads, and 10 μL beads (250 beads/analyte/μL) were added to each well per analyte. Plates were protected from light (Black Microplate Lid, VWR) and incubated for 1 hour at 25° C.±3° C. with shaking. Plates were washed with wash solution (Myriad RBM), and then 40 μL of detection antibody-biotin conjugate was added and plates were incubated for an additional hour with shaking. After incubation with the antibody-biotin conjugate, 40 μL of R-phycoerythrin-labeled streptavidin (Invitrogen) was added, and plates were incubated for 30 minutes with shaking. After a final wash, 100 μL of assay buffer was added to each well and plates were read on a Luminex 200 reader.
as §1, §2

AMO-1 cell line = details: read-out: IC50 (sensitivity to S63845), Kotschy et al., Nature 2016; cited from earlier work
Bcl-2-BIM complexes = biological target: T1, Bcl-2-BIM complexes (Homo sapiens, UniProt P10415); assay: Heterodimer complexes in AMO-1 xenograft tumor lysates after treatment, Bcl-2-BIM; assay type: in vivo, mice; details: 16 hours after treatment, NSC798846 25 mg/kg intravenously, NSC766270 100 mg/kg orally (FIG. 7A)
T1 construct: from tissue; host or cells: AMO-1 xenograft tumors grown in mice
Method: as §3

AMO1 xenografts = details: intravenous injection; Kotschy et al.; cited from earlier work
BIM = details: AMO-1 xenograft tumor lysates, 16 hours after 25 mg/kg intravenously (FIG. 7A)
Method: The effect of two different BH3 mimetics on heterodimer composition in the AMO-1 and MV411 models was next evaluated. […] Heterodimer complexes were measured in tumor lysates prepared from AMO-1 mice 16 hours after treatment and from MV411 mice 24 hours after treatment.

BIM-Mcl-1 heterodimer = biological target: T2, BIM-Mcl-1 heterodimer (Homo sapiens, UniProt Q07820); assay: Heterodimer immunoassay, BIM-Mcl-1 in lysates of treated cancer cell lines; assay type: cell-based; parameters: BIM-Mcl-1 heterodimers: dose or concentration left out as unconfirmed
T2 construct: Within cells, anti-apoptotic proteins exist primarily as complexed heterodimers with pro-apoptotic proteins; endogenous in cells; host or cells: AMO-1, MV4-11 (Mv411), HCT116, MOLT-4
Method: as §3, §1, §2

BIM-Bcl-xL heterodimer = BIM-Bcl-xL heterodimer (Homo sapiens, UniProt Q07817); assay: Heterodimer immunoassay, BIM-Bcl-xL in lysates of treated cancer cell lines; assay type: cell-based; parameters: BIM-Bcl-xL heterodimeric complexes: dose or concentration left out as unconfirmed
Method: as §3, with “After incubation with the antibody-biotin conjugate, 40 μL of R-phycoerythrin-labeled streptavidin (Invitrogen) was added, and plates were incubated for 30 minutes with shaking.” left out, “reader. […]” for “reader.”
as §2

[2] = AMO-1 cells, treated vs untreated (FIG. 5B, 5C)
[3] = HCT116 and MOLT-4 cancer cell lines (FIG. 4D)
[4] = Mv4-11 cells, treated vs untreated (FIG. 5D, 5E)
[5] = Mv4-11 cells, treated with vs untreated (FIG. 5D, 5E)

T2 sequence (Q07820 whole entry, one chain of several): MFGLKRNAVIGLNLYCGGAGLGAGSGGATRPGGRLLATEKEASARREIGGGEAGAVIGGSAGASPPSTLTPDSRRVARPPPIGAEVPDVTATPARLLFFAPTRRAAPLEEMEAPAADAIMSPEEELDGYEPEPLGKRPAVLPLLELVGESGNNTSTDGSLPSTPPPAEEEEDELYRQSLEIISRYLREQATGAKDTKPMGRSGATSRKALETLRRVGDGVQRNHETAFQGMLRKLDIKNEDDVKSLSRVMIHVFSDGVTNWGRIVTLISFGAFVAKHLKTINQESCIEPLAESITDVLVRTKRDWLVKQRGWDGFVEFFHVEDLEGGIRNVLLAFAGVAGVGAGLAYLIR
Sequence of BIM-Bcl-xL heterodimer (Q07817 whole entry, one chain of several): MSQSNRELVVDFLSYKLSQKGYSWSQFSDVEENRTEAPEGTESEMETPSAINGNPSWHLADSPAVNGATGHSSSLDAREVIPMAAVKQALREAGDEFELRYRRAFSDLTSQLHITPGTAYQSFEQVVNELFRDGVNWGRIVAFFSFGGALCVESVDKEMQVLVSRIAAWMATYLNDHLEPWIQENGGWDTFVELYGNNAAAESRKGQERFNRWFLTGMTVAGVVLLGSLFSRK
T1 sequence (P10415 whole entry, one chain of several): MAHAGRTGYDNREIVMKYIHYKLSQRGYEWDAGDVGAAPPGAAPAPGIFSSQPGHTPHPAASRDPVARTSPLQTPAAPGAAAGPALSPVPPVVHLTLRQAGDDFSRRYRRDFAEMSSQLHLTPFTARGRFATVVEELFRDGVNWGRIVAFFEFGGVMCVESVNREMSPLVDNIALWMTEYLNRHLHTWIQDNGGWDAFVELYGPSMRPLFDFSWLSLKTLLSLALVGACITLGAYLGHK

SMILES | BAK-BAX oligomerization (mitochondrial poration marker), subsequent caspase-3 activation and cell death (BAK-BAX oligomerization) | effectiveness of treatment in multiple myeloma model AMO-1 (AMO-1 xenograft tumors) | disrupting the balance of BIM complexes and initiating caspase-3 activation and cell death (MV411 xenograft tumors) | activity in MV4-11 human AML xenograft model [1] | cleaved caspase-3 (cleaved caspase-3; [2]) | cleaved caspase-3 (cleaved caspase-3; [3]) | cleaved caspase-3 (cleaved caspase-3; [4]) | BAX-BAK heterodimers (BAX-BAK heterodimer; AMO-1 cells, treated with vs untreated (FIG. 5B)) | BAX-BAK levels (BAX-BAK heterodimer) | BAX-BAK heterodimers (BAX-BAK heterodimer; [5]) | IC50 (AMO-1 cell line) [nM] | Bcl-2-BIM complexes (Bcl-2-BIM complexes) | anti-tumor activity in AMO1 xenografts (AMO1 xenografts) | BIM (overall) (BIM) | BIM-Mcl-1 levels (BIM-Mcl-1 heterodimer; AMO-1 and Mv411 cell lines, in vitro (FIG. 3A)) | BIM-Mcl-1 levels (BIM-Mcl-1 heterodimer; HCT116 and MOLT-4 cancer cell lines (FIG. 4B)) | BIM-Mcl-1 heterodimers (BIM-Mcl-1 heterodimer; [5]) | BIM-Bcl-xL levels (BIM-Bcl-xL heterodimer; HCT116 and MOLT-4 cancer cell lines (FIG. 4A)) | BIM-Bcl-xL heterodimeric complexes (BIM-Bcl-xL heterodimer; Mv4-11 cells, treated vs untreated (FIG. 5E))
CC1(C)CCC(CN2CCN(c3ccc(C(=O)NS(=O)(=O)c4ccc(NCC5CCOCC5)c([N+](=O)[O-])c4)c(Oc4cnc5[nH]ccc5c4)c3)CC2)=C(c2ccc(Cl)cc2)C1 [NSC766270] | did not initiate | ineffective | equally effective |  |  |  |  |  |  |  |  |  |  |  |  |  |  |  | 
Cc1c(-c2c(-c3ccc(F)o3)sc3ncnc(O[C@H](Cc4ccccc4OCc4ccnn4CC(F)(F)F)C(=O)O)c23)ccc(OCCN2CCN(C)CC2)c1Cl [S63845] |  |  | equally effective | less potent activity | increase | increased activation | significant increase | increase | increased | significant increase | < 100 | disruption | dose-dependent anti-tumor activity | overall degradation |  |  |  |  | 
CC1(C)CCC(c2ccc(Cl)cc2)=C(CN2CCN(c3ccc(C(=O)NS(=O)(=O)c4ccc(N[C@H](CCN5CCOCC5)CSc5ccccc5)c(S(=O)(=O)C(F)(F)F)c4)cc3)CC2)C1 [novitoclax] |  |  |  |  | did not lead to a significant increase | increased activation | increase |  | increased | increase |  |  |  |  | largely unaffected | increased | increase | disrupted | decrease

Source: US12631645B2, “Detection of BCL-2 family heterodimer complexes and use thereof” (The U.S.A., as represented by the Secretary, Department of …, priority 2019, dated 2026)
